Measurements reported in ChEMBL document CHEMBL1151144, “Annonaceous acetogenins: a review” (J Nat Prod, 1990).
Converted amounts (≈) assume the structure as drawn.

Experiments:
[1] = system: A549; assay: Cytotoxicity against human A549 cells; type: functional; conditions: for EC50: Homo sapiens, A549, read-out: ED50 (the source's name)
[2] = Cytotoxicity against mouse 9PS cells; type: functional; conditions: for EC50: Mus musculus, read-out: ED50 (the source's name)
[3] = system: HT-29; assay: Cytotoxicity against human HT-29 cells; type: functional; conditions: for EC50: Homo sapiens, HT-29, read-out: ED50 (the source's name)
[4] = system: Calliphora vicina; assay: Pesticidal activity against Blowfly larvae assessed as mortality at 10000 ppm; type: functional
[5] = Cytotoxicity against human 9KB cells; type: functional; conditions: for EC50: Homo sapiens, 9KB, read-out: ED50 (the source's name)
[6] = system: Agrobacterium tumefaciens; assay: Antitumor activity assessed as inhibition of Agrobacterium tumefaciens-induced tumor formation by potato disk assay; type: functional
[7] = system: Artemia; assay: Toxicity against brine shrimp; type: organism-based; conditions: in vivo
[8] = system: Plasmodium falciparum; assay: Antiplasmodial activity against chloroquine-sensitive Plasmodium falciparum W2; type: functional, organism-based
[9] = system: Plasmodium falciparum; assay: Antiplasmodial activity against chloroquine-sensitive Plasmodium falciparum D6; type: functional, organism-based
[10] = Antimitotic activity in rat 9ASK cells assessed as reversal of astrocyte formation; type: functional
[11] = Antimitotic activity in rat 9ASK cells assessed as reversal of astrocyte formation at 100 ug/mL; type: functional
[12] = (§1) In vivo antitumor activity against mouse 3PS cells at 0.95 mg/kg relative to control; type: functional
[13] = system: Calliphora vicina; assay: Pesticidal activity against Blowfly larvae assessed as mortality at 1% drug concentration; type: functional
[14] = system: Aedes aegypti; assay: Pesticidal activity against Aedes aegypti larvae assessed as mortality at 10 ppm; type: functional
[15] = as §1; type: functional; remark: listed apart in the source
[16] = system: L1210; assay: In vivo antitumor activity against mouse L1210 cells at 0.4 mg/kg relative to control; type: functional
[17] = system: MCF7; assay: Cytotoxicity against human MCF7 cells; type: functional; conditions: for EC50: Homo sapiens, MCF7, read-out: ED50 (the source's name)
[18] = Antimitotic activity in rat 9ASK cells assessed as reversal of astrocyte formation at 10 ug/mL; type: functional

Row | Compound | EC50 [1] | ED50 [2] | EC50 [3] | EC50 [5] | inhibition (INH) [6] | LC50 [7] | ED50 [5] | EC50 [2] | further results
1 | CCCCCCCCCCCC[C@@H](O)[C@H]1CC[C@H]([C@H](O)CCCCC(=O)CCCCC[C@@H](O)CC2=C[C@H](C)OC2=O)O1 [ANNONACINONE] | 0.1 µg/mL (≈ 0.168 µM) | 1 ×10⁻⁶ ug/ml | 1 µg/mL (≈ 1.68 µM) | – | – | – | – | – | –
2 | CCCCCCCCCCCC[C@@H](O)[C@H]1CC[C@H]([C@H](O)CCCC[C@H](O)CCCCC[C@@H](O)CC2=CC(C)OC2=O)O1 (stereo partly drawn) [ANNONACIN] | 0.001 µg/mL (≈ 0.00168 µM) | 1 ×10⁻⁵ ug/ml | 3 µg/mL (≈ 5.03 µM) | 0.001 µg/mL (≈ 0.00168 µM) | 72% | 3.3 ppm | – | – | Activity [4]: 100%; IC50 [8]: 1.51 µg/mL (≈ 2.53 µM); IC90 [8]: 74.7 µg/mL (≈ 125 µM); IC50 [9]: 1.3 µg/mL (≈ 2.18 µM); IC90 [9]: 12.4 µg/mL (≈ 20.9 µM); Activity [10]: 51%; Activity [11]: 15%; T/C [12]: 124%; Activity [13]: 100%; Activity [14]: 70%; T/C [15]: 124%
3 | CCCCCCCCCC[C@H](O)[C@H]1CC[C@H]([C@H]2CC[C@H]([C@H](O)CCCCCCCCCC[C@@H]3CC(CC(C)=O)C(=O)O3)O2)O1 (stereo partly drawn) [BULLATACINONE] | – | – | – | – | 15% | 0.003 ppm | – | – | T/C [16]: 144%
4 | CCCCCCCCCC[C@@H](OC(C)=O)[C@H]1CC[C@H]([C@@H](CC[C@@H](OC(C)=O)[C@@H]2CCC(CCCCCCC[C@@H](CC3=C[C@@H](C)OC3=O)OC(C)=O)O2)OC(C)=O)O1 (stereo partly drawn) [BULLATALICIN TETRAACETATE] | < 0.001 µg/mL | – | 1.35 µg/mL (≈ 1.67 µM) | – | – | – | – | – | EC50 [17]: < 0.001 µg/mL
5 | CCCCCCCCCC[C@H](O)[C@H]1CC[C@H]([C@H](O)CC[C@H](O)[C@@H]2CC[C@@H](CCCCCCC[C@@H](O)CC3=C[C@H](C)OC3=O)O2)O1 [BULLATALICIN] | – | – | – | > 10 µg/mL | 63% | 0.154 ppm | – | – | EC50 [17]: 2.34 µg/mL (≈ 3.66 µM); ED50 [1]: 2.34 ×10⁻⁷ ug/ml; ED50 [3]: 8.8 ×10⁻⁶ ug/ml
6 | CCCC(O)CCC(O)CCC(O)C1CCC(C2CCC(C(O)CCCCCCCCCCCCCC3=CC(C)OC3=O)O2)O1 (stereo not drawn) [CHERIMOLINE] | 0.001 µg/mL (≈ 0.00157 µM) | – | > 0.001 µg/mL | – | – | 1.24 ppm | 6 ×10⁻¹² ug/ml | < 0.01 µg/mL | –
7 | CCCC(O)CCC(O)CCC(O)C1CCC(C2CCC(C(O)CCCCCCCCCCCCCC3CC(C)OC3=O)O2)O1 (stereo not drawn) [DIHYDROCHERIMOLINE] | 0.001 µg/mL (≈ 0.00156 µM) | – | 0.001 µg/mL (≈ 0.00156 µM) | – | – | 4.02 ppm | 2 ×10⁻⁸ ug/ml | < 0.01 µg/mL | –
8 | CCCCCCCCCCCC[C@@H](O)[C@H]1CC[C@H]([C@H](O)CC[C@H](O)[C@@H]2CC[C@@H](CCCCC[C@@H](O)CC3=C[C@H](C)OC3=O)O2)O1 [GIGANTECIN] | – | <1 ×10⁻⁵ ug/ml | – | – | 83% | 222 ppm | <1 ×10⁻⁵ ug/ml | – | ED50 [17]: 4.11 ×10⁻⁹ ug/ml; ED50 [1]: 2.19 ×10⁻⁷ ug/ml; Activity [18]: 31%; ED50 [3]: 2.68 ×10⁻⁴ ug/ml
9 | CCCCCCCCCCCCCC[C@@H](O)[C@H]1CC[C@H]([C@H](O)CC[C@H](O)CCCCC[C@@H](O)CC2=C[C@H](C)OC2=O)O1 [GONIOTHALAMICIN] | – | – | – | < 0.01 µg/mL | 68% | 37 ppm | – | < 0.1 µg/mL | Activity [4]: 100%; IC50 [8]: 1.59 µg/mL (≈ 2.66 µM); IC90 [8]: 23.6 µg/mL (≈ 39.6 µM); IC50 [9]: 1.08 µg/mL (≈ 1.82 µM); IC90 [9]: 8.23 µg/mL (≈ 13.8 µM); Activity [14]: 100%
10 | CCCCCCCCCCCC[C@H](O)[C@@H]1CC[C@@H]([C@@H](O)CCCCC(=O)CCCCCC2CC(CC(C)=O)C(=O)O2)O1 (stereo partly drawn) [ISOANNONACINONE] | 0.07 µg/mL (≈ 0.118 µM) | – | 0.009 µg/mL (≈ 0.0151 µM) | – | – | – | – | 0.5 µg/mL (≈ 0.841 µM) | –
